Assay [1] has as its system Met-1 cells. The conditions noted are these: 2.5 μM GU81, 72 hours, serum-free DMEM, p < 0.05 vs SFM, 1-way ANOVA. The method, then: Tumor-conditioned media (TCM) was collected and RNA harvested using TRIzol (Invitrogen) according to the manufacturer's directions at 24, 48, and 72 hours post-treatment. The quality of RNA was evaluated using spectrophotometry. The cDNA used for subsequent PCR was made using iScript (Bio-Rad Laboratories). The expression of VEGF was analyzed by quantitative real-time PCR using assay on demand from Applied Biosystems (Mm00437308_m1). […] Quantitative real-time PCR was performed in a reaction volume of 20 μL of cDNA and each reaction was performed in triplicate. We used the comparative Ct method to compute relative expression values. TCM was diluted 1:5 prior to analysis for VEGF concentration using the Quantikine Mouse VEGF Immunoassay (R&D Systems).
Results are expressed as mean ± SEM.

Assay [2] concerns MMTV-PyMT tumors. The experiment in a line: H&E histology of MMTV-PyMT tumors. The following applies: formalin-fixed tumors after 19 days treatment.
Assay [3] deals with MMTV-PyMT tumors. The experiment in a line: Tumor VEGF immunohistochemistry. The conditions noted are these: percent VEGF positive area, vs control, p ≤ 0.05 for GU81 alone, t-test; 3 animals/group, 5 sections/animal.
The test system of a further assay is HUVEC. The conditions noted are these: when compared to GU40C4.
For assay [4], the system named is MMTV-PyMT transgenic model of breast cancer. The experiment in a line: MMTV-PyMT breast cancer therapy study: tumor volume, tumor weight, efficacy. The conditions noted are these: for tumor volume vs control: MMTV-PyMT mice, 19 days from age 6 weeks, GU81 260 μg/day osmotic pump, doxorubicin 2 mg/kg once weekly, 2-way ANOVA; for total tumor weight vs control: at sacrifice (age 60 days), p ≤ 0.01 for combination, 1-way ANOVA.

Assay [5] concerns Met-1 cells. The conditions noted are these: GU81 treatment, mRNA and protein.
Assay [6] has as its system MMTV-PyMT tumors. The conditions noted are these: cited from earlier work. The source says: Macrophage infiltration is associated with poor prognosis in a number of different tumor types, including breast cancer. […] This increase in macrophage infiltration is puzzling ...
The next assay has as its target T1, VEGFR2 (Homo sapiens, UniProt P35968).
T1 construct: purchased R&D Systems
The experiment in a line: Fluorescence-based ELISA, VEGFR2 binding. The following applies: vs GU40C4 (ref 12). The method, then:
Wells were washed with 5 × 200 μL of PBS and fluorescence was measured at 520 nm using a plate reader (Fluostar Optima, BMG Laboratories, Durham, NC).

The target of the next assay is T2, VEGFR2 (PAE-KDR cells) (Homo sapiens, UniProt P35968).
T2 construct: host or cells: PAE-KDR cells
T2 sequence (P35968 20-1356): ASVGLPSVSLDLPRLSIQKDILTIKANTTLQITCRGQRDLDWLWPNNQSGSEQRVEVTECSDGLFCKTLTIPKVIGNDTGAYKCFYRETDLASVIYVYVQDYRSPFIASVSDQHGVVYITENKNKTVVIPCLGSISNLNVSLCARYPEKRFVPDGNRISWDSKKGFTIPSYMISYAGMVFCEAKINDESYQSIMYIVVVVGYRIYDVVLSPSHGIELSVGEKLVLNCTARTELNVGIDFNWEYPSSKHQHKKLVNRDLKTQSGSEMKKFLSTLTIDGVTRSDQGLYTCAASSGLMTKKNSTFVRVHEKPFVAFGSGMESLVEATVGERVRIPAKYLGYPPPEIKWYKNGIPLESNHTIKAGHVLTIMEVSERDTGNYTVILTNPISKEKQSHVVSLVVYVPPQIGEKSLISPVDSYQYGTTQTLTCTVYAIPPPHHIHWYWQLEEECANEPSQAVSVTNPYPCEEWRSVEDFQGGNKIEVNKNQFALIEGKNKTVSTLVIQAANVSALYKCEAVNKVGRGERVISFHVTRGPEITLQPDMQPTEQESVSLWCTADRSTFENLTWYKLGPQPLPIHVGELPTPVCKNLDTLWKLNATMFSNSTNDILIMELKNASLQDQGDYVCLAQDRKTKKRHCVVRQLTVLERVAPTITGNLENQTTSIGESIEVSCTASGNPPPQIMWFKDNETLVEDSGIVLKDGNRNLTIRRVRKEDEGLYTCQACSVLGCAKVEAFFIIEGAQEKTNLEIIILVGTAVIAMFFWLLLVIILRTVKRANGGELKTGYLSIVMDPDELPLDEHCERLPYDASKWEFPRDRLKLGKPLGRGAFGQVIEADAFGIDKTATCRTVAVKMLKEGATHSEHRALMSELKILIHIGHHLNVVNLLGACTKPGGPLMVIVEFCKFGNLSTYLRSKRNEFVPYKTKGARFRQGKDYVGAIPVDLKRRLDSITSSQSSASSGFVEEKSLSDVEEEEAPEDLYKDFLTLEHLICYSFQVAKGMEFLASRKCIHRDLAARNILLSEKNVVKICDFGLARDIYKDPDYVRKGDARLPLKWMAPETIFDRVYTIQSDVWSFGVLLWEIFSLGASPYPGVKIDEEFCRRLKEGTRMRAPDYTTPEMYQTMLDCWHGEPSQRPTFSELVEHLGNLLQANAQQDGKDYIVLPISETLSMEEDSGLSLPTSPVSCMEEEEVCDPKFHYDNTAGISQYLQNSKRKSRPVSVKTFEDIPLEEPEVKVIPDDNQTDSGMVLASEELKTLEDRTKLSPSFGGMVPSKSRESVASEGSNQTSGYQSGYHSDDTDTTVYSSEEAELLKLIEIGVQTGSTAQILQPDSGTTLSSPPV
The experiment in a line: VEGFR2 autophosphorylation assay, PAE-KDR cells. It is filed as cell-based. The method, then: Experiments were conducted using PAE-KDR (Sibtech Inc., Brookfield, CT) and HUVEC (Sciencecell, Carlsbad, CA) cells. […] Cells were harvested with lysis buffer, and lysates were separated by SDS-PAGE and transferred to PVDF membranes. Membranes were probed with anti phospho-VEGF receptor 2 (Tyr1175, 19A10) or total anti-VEGFR2 primary antibodies (Cell Signaling Technology, Danvers, MA) and subsequently developed with appropriate HRP-conjugated secondary antibody (BioRad Laboratories, Hercules, CA) followed by enhanced chemiluminescent detection (Pierce).

In assay [7] the test system is MMTV-PyMT tumors. The experiment in a line: F4/80 macrophage infiltration immunohistochemistry. The following applies: percent F4/80 positive area, p ≤ 0.05 vs control, t-test; 3 animals/group, 5 sections/animal.
Assay [8] relates to MMTV-PyMT transgenic model of breast cancer. The following applies: cited from earlier work.
Assay [9] deals with MMTV-PyMT tumors. The experiment in a line: Perilipin and adiponectin immunohistochemistry of MMTV-PyMT tumors (tumor fat content). The following applies: for tumor fat content (residual adipose tissue): MMTV-PyMT tumors after 19 days treatment, H&E and adipocyte markers.
The test system of assay [10] is 4T1 syngenic breast cancer model. The conditions noted are these: 4T1 syngeneic model; cited from earlier work.
The subject of assay [11] is MMTV-PyMT tumors. The experiment in a line: Endomucin immunohistochemistry (vessel number, vascular area, vessel size).
The test system of assay [12] is MMTV-PyMT tumors.

“Also recorded” adds a separate entry of the source. Numbered stars: 1 amine (or outer) side, 2 acyl side, 3 side chain; on linkers, the order of the positions; unused ones are H or OH. Bridge positions count the residues as written; N and C are the ends. Square brackets hold non-standard residues; d marks the D form. Peptide text beside a SMILES is read from it. I, II: the chains in the order shown. Gly(N-piperonyl) = O=C(O)CNCc1ccc2c(c1)OCO2; X1 = CC(CN(CC(=O)[*:2])[*:1])c1ccccc1; Nleu = CC(C)CNCC(=O)O; Nlys = NCCCCNCC(=O)O; Ahx = NCCCCCC(=O)O; Nme = COCCNCC(=O)O; βAla = NCCC(=O)O

The values below come from publication PMC2920882 (BMC Cancer, 2010).

T1 sequence (P35968 20-1356): as above

As for `COCCN(CC(=O)N(CC(=O)N(CC(=O)N(CCCCN)CC(=O)N(CC(=O)N(CCCCN)CC(=O)N(CCCCN)CC(=O)NCCCCCC(=O)NCCC(=O)N[C@@H](CCCCNC(=O)CN(CCCCN)C(=O)CN(CCCCN)C(=O)CN(CC(C)C)C(=O)CN(CCCCN)C(=O)CN(Cc1ccc2c(c1)OCO2)C(=O)CN(CC(C)c1ccccc1)C(=O)CN(CCOC)C(=O)CN(CC(C)C)C(=O)CNCCCCN)C(N)=O)CC(C)C)Cc1ccc2c(c1)OCO2)CC(C)c1ccccc1)C(=O)CN(CC(C)C)C(=O)CNCCCCN` (stereo partly drawn) [GU81] (I: H-[Nlys][Nleu][Nme][X1][Gly(N-piperonyl)][Nlys][Nleu][Nlys][Nlys][Ahx][βAla]K-NH2 / II: H-[Nlys][Nleu][Nme][X1][Gly(N-piperonyl)][Nlys][Nleu][Nlys][Nlys]; amide I:12-II:C), the “VEGF mRNA level in Met-1 cells” value in the assay on Met-1 cells [1] is listed as “significantly increased after 72 hours of GU81 treatment; also recorded: significant increase in VEGF gene transcription following 72 hrs of GU81 treatment”. For the same molecule, the “tumor histology / progression / invasion” value in the assay with MMTV-PyMT tumors [2] is on record as “no effect on tumor weight, histology, tumor fat content, or tumor growth index; also recorded: did not alter this histology”. In addition, the “tumor histology / progression / invasion” value with MMTV-PyMT tumors [2] (listed as GUI81) was “clearly invasive adenocarcinomas”. Besides, the “tumor VEGF level” value with MMTV-PyMT tumors [3] was “increased tumor-VEGF levels and macrophage infiltration; also recorded: significantly increased levels of VEGF compared to tumors from control-treated mice; also recorded: increased tumor VEGF expression in this model”. The “expected inhibition of endothelial cell proliferation” value with HUVEC was “more potent inhibitor of endothelial cell proliferation when compared to GU40C4”. For the same molecule, the “therapeutic efficacy in MMTV-PyMT model” value in assay [4] (GU81 260 μg/day alone or with doxorubicin 2 mg/kg once weekly, 19 days) is listed as “little therapeutic efficacy when used alone; also recorded: not effective as a single agent in the MMTV-PyMT model of breast cancer”. For the same molecule, in assay [4], the “tumor volume vs control” value is “did not have a significant effect on either tumor volume or tumor weight” and the “total tumor weight vs control” value was “no effect on tumor weight, histology, tumor fat content, or tumor growth index; also recorded: did not have a significant effect on either tumor volume or tumor weight”. In the assay with Met-1 cells [5], the “VEGF expression in Met-1 cells (discussion)” value is listed as “increased VEGF expression following treatment with GU81”. Moreover, the “macrophage infiltration, single agent” value with MMTV-PyMT tumors [6] is on record as “increases macrophage infiltration as a single-agent”. The “improvement of KD over the original GU40C4” value at VEGFR2 was 3 -fold. Also, at VEGFR2 (PAE-KDR cells) (PAE-KDR cells, increasing concentrations of GU81 15 min, VEGF 1.3 nM 7 min, 37°C, Western blot), the “block of VEGF-induced VEGFR2 phosphorylation” value is “effectively blocks VEGF-induced VEGFR2 phosphorylation of PAE-KDR cells in a dose-dependent manner”. For the same molecule, the in vitro efficacy result on VEGFR2 (PAE-KDR cells) (abstract: compared to GU40C4, discussion: in vitro biological efficacy) is listed as “increased in vitro efficacy compared to GU40C4; also recorded: potent in vitro biological efficacy”. For the same molecule, the “macrophage infiltration vs control” value in the assay with MMTV-PyMT tumors [7] is “increased tumor-VEGF levels and macrophage infiltration; also recorded: significantly increased following treatment with GU81; also recorded: induces macrophage infiltration in vivo”. Further, the “in vivo efficacy as a single agent, MMTV-PyMT model” value in assay [8] is given as “does not demonstrate in vivo efficacy as a single agent in the MMTV-PyMT model of breast cancer”. Further, the “tumor fat content (residual adipose tissue)” value in the assay on MMTV-PyMT tumors [9] is given as “no effect on tumor weight, histology, tumor fat content, or tumor growth index”. Moreover, in assay [10], the “tumor size, 4T1 model, single agent” value is “effectively reduces tumor size and MVD”. Moreover, the total vessel number entry with MMTV-PyMT tumors [11] (endomucin, vessels per 200× field, 3 animals/group, 5 sections/animal) is “no effect on total vessel number; also recorded: do not see a decrease in vessel number”. In the assay with MMTV-PyMT tumors [11] (percent endomucin positive area per 200× field, vs control, p < 0.001, t-test), the “total vascular area, GU81 alone” value was “able to significantly to reduce total vascular area as a single agent; also recorded: decreased total vascular area; also recorded: reduces total vascular area and vessel size; also recorded: decrease in total vascular area and vessel size”. In addition, in the assay with MMTV-PyMT tumors [11] (percent fluorescent area divided by total vessel number, vs control, t-test), the vessel size entry was “reduces total vascular area and vessel size; also recorded: decrease in total vascular area and vessel size”.
For the molecule `COc1cccc2c1C(=O)c1c(O)c3c(c(O)c1C2=O)C[C@@](O)(C(=O)CO)C[C@@H]3O[C@H]1C[C@H](N)[C@H](O)[C@H](C)O1` [doxorubicin, reference compound], the “tumor histology / progression / invasion” value in the assay with MMTV-PyMT tumors [2] was “no effect on tumor weight, histology, tumor fat content, or tumor growth index; also recorded: displayed areas of invasive carcinoma; although the invasive component of the tumor was reduced when compared to control and GU81-treated animals; also recorded: clearly invasive adenocarcinomas”. For the same molecule, the “tumor VEGF level” value with MMTV-PyMT tumors [3] is “neither treatment with doxorubicin alone or in combination with GU81 had significant effects on VEGF expression”. Also, in assay [4], the “tumor volume vs control” value is reported as “significantly reduced tumor volume compared to control treated animals” and the “total tumor weight vs control” value was “no effect on tumor weight, histology, tumor fat content, or tumor growth index”. For the same molecule, in the assay with MMTV-PyMT tumors [12] (from proliferation, apoptosis and growth index), the “cytostatic / cytocidal character of the therapy” value is on record as “cytostatic”. Besides, in the assay with MMTV-PyMT tumors [12] (phospho-histone-3 / cleaved caspase-3 positive cells per 200× field, vs control, p ≤ 0.05 for combination, 1-way ANOVA), the “tumor growth index vs control” value is on record as “no effect on tumor weight, histology, tumor fat content, or tumor growth index”. In addition, the “phospho-histone-3 positive cells (proliferation) vs control” value with MMTV-PyMT tumors [12] (vs control, p ≤ 0.01 (doxorubicin, combination), 1-way ANOVA, 3 animals/group, 5 sections/animal) is “fewer phospho-histone-3 positive cells when compared to tumors from control treated animals”. In addition, the “cleaved (active) caspase-3 positive cells (apoptosis) vs control” value in the assay with MMTV-PyMT tumors [12] (vs control, p ≤ 0.05 (doxorubicin), 1-way ANOVA, 3 animals/group, 5 sections/animal) was “significantly fewer active caspase-3 positive cells when compared to tumors from control-treated animals”. For the same molecule, the “adiponectin staining vs control” value with MMTV-PyMT tumors [9] (Cy3 positive area, vs control, p≤0.05, t-test) was “significantly increased”. For the same molecule, the “tumor fat content (residual adipose tissue)” value in the assay on MMTV-PyMT tumors [9] is “no effect on tumor weight, histology, tumor fat content, or tumor growth index”.
